Assay results from the supplement of paper PMC4862054.

What was measured:
Details in all cases: incubation time: 72 h
[1] = test system: CAL-148; assay: normalised response (% of control), CellTiter-Glo; higher = more viable cells (100 = DMSO, 0 = benzethonium chloride kill control)
Experimental: (§1)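 DSRT, 72 h incubation, CellTox Green / CellTiter-Glo readout. Signal is normalised to DMSO and benzethonium chloride controls. Value is the normalised response at dose 3.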

[2] = test system: MDA-MB-231; assay: as above
Experimental: as §1

[3] = test system: HCC1143; assay: as above
Experimental: as §1

[4] = test system: CAL-85-1; assay: as above
Experimental: as §1

[5] = test system: MDA-MB-453; assay: as above
Experimental: as §1

[6] = test system: HCC1937; assay: as above
Experimental: as §1

[7] = test system: CAL-120; assay: as above
Experimental: as §1

[8] = test system: SK-BR-3; assay: as above
Experimental: as §1

[9] = test system: BT-474; assay: as above
Experimental: as §1

[10] = test system: CAL-51; assay: as above
Experimental: as §1

[11] = test system: MDA-MB-436; assay: as above
Experimental: as §1

[12] = test system: MCF-10A; assay: as above
Experimental: as §1

[13] = test system: MDA-MB-468; assay: as above
Experimental: as §1

[14] = test system: MFM-223; assay: as above
Experimental: as §1

[15] = test system: BT-549; assay: as above
Experimental: as §1

[16] = test system: DU-4475; assay: as above
Experimental: as §1

[17] = test system: Hs578T; assay: as above
Experimental: as §1

[18] = test system: HDQ-P1; assay: as above
Experimental: as §1

[19] = test system: HCC1599; assay: as above
Experimental: as §1

[20] = test system: CAL-148; assay: normalised response (% of control), CellTox Green; higher = less cell death (100 = DMSO, 0 = benzethonium chloride kill control)
Summary of the method: (§2)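 Compound was dispensed into 384-well plates at 5 concentrations in 10-fold steps spanning a 10,000-fold range specific to that compound. Breast cancer cell lines were added as 20 µl suspension and left for 72 h before CellTox Green fluorescence (485/520 nm) and then CellTiter-Glo luminescence, read after 10 min at room temperature. Each reported value is the normalised signal at one concentration, with 0.1 % DMSO set at 100 and a positive kill control at 0 on each plate.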

[21] = test system: MDA-MB-231; assay: as above
Summary of the method: as §2

[22] = test system: HCC1143; assay: as above
Summary of the method: as §2

[23] = test system: CAL-85-1; assay: as above
Summary of the method: as §2

[24] = test system: MDA-MB-453; assay: as above
Summary of the method: as §2

[25] = test system: CAL-120; assay: as above
Summary of the method: as §2

[26] = test system: BT-474; assay: as above
Summary of the method: as §2

[27] = test system: CAL-51; assay: as above
Summary of the method: as §2

[28] = test system: MDA-MB-436; assay: as above
Summary of the method: as §2

[29] = test system: MCF-10A; assay: as above
Summary of the method: as §2

[30] = test system: MFM-223; assay: as above
Summary of the method: as §2

[31] = test system: BT-549; assay: as above
Summary of the method: as §2

[32] = test system: DU-4475; assay: as above
Summary of the method: as §2

[33] = test system: Hs578T; assay: as above
Summary of the method: as §2

[34] = test system: HDQ-P1; assay: as above
Summary of the method: as §2

[35] = test system: HCC1599; assay: as above
Summary of the method: as §2

[36] = test system: MDA-MB-468; assay: as above
Summary of the method: as §2

[37] = test system: HCC1937; assay: as above
Summary of the method: as §2

Row | SMILES | normalised response [1] | normalised response [2] | normalised response [3] | normalised response [4] | normalised response [5] | normalised response [6] | normalised response [7] | normalised response [8] | normalised response [9] | normalised response [10] | normalised response [11] | normalised response [12] | normalised response [13] | normalised response [14] | normalised response [15] | normalised response [16] | normalised response [17] | normalised response [18] | normalised response [19] | normalised response [20] | normalised response [21] | normalised response [22] | normalised response [23] | normalised response [24] | normalised response [25] | normalised response [26] | normalised response [27] | normalised response [28] | normalised response [29] | normalised response [30] | normalised response [31] | normalised response [32] | normalised response [33] | normalised response [34] | normalised response [35] | normalised response [36] | normalised response [37]
1 | Cc1c(C(=O)Nc2ccc(N3C[C@@H](C)O[C@@H](C)C3)nc2)cccc1-c1ccc(OC(F)(F)F)cc1 [Erismodegib] (100 nM) | 92.7% | 99.9% | 96.4% | 92.6% | 85% | 103% | 101% | 88.6% | 91.2% | 68.9% | 92.3% | 89.6% | 90.4% | 85.6% | 102% | 99.4% | 101% | 91.3% | 93.5% | 105% | 97.2% | 98.8% | 88.8% | 98.6% | 94.8% | 97.1% | 93.3% | 101% | 94.9% | 97.2% | 104% | 95.8% | 109% | 99.6% | 110% | – | –
2 | Cn1cc(C[C@@H](N)C(=O)O)c2ccccc21 [1-methyl-D-tryptophan] (50 nM) | 90.1% | 98.5% | 99% | 102% | 96% | 96.2% | 104% | 90.8% | 103% | 67.8% | 102% | 102% | 92.6% | 93.4% | 107% | 100% | 95.4% | 102% | 92.6% | 68.5% | 83% | – | 98.5% | 105% | 96.8% | 99.9% | 80.4% | 73.2% | 102% | – | 88% | 103% | – | 105% | 94.2% | 99.9% | –
3 | N[C@@H](Cc1ccc(N(CCCl)CCCl)cc1)C(=O)O [Melphalan] (125 nM) | 78.3% | 83.3% | 90.2% | 105% | 79.2% | 83.4% | 108% | 84.8% | 91.5% | 67.5% | 98.1% | 103% | 75.4% | 91.5% | 100% | 92.7% | 93.1% | 90.1% | 104% | 89.5% | 50.5% | 102% | 104% | 76.5% | 101% | 102% | 75.1% | 103% | 98.4% | 96.1% | 103% | 107% | – | 108% | 88.9% | 87.3% | 99.1%
4 | CO[C@H]1C[C@@H]2CC[C@@H](C)[C@@](O)(O2)C(=O)C(=O)N2CCCC[C@H]2C(=O)O[C@H]([C@H](C)C[C@@H]2CC[C@@H](O)[C@H](OC)C2)CC(=O)[C@H](C)/C=C(\C)[C@@H](O)[C@@H](OC)C(=O)[C@H](C)C[C@H](C)/C=C/C=C/C=C/1C [Sirolimus] (1 nM) | 94.2% | 101% | 92.5% | 78.4% | 93.7% | 85.6% | 98% | 95.4% | 90.5% | 90.1% | 92.4% | 112% | 71.1% | 96.5% | 83.5% | 98.7% | 88.2% | 102% | 103% | 103% | 109% | 78.7% | 105% | 109% | 97.4% | 102% | 107% | 79.2% | 91.9% | 92.6% | 78.5% | 105% | – | 97.1% | 94.8% | 119% | –
5 | CCCCCOC(=O)Nc1nc(=O)n([C@@H]2O[C@H](C)[C@@H](O)[C@H]2O)cc1F [Capecitabine] (100 nM) | 114% | 99.5% | 98.7% | 95.4% | 103% | 97.2% | 103% | 100% | 98.7% | 99.5% | 102% | 95.5% | 103% | 102% | 102% | 106% | 98.8% | 97.5% | 98.3% | 99.1% | 104% | 87.6% | 105% | 97.3% | 99.9% | 91.4% | 105% | 95.3% | 101% | 104% | 89.4% | 99.9% | – | 105% | 95.2% | 127% | 103%
6 | Cc1c(N)nc([C@H](CC(N)=O)NC[C@H](N)C(N)=O)nc1C(=O)N[C@H](C(=O)N[C@H](C)[C@@H](O)[C@H](C)C(=O)N[C@H](C(=O)NCCc1nc(-c2nc(C(=O)NCCC[S+](C)C)cs2)cs1)[C@@H](C)O)[C@@H](OC1OC(CO)C(O)C(O)C1OC1OC(CO)C(O)C(OC(N)=O)C1O)c1cnc[nH]1 (stereo not given in full) [Bleomycin] (100 nM) | 87.7% | 89.3% | 90.6% | 96.8% | 90.2% | 84.2% | 95.3% | 92.8% | 95.8% | 55% | 89.1% | 90.6% | 80.4% | 95.6% | 77.2% | 93.8% | 93.2% | 99.5% | 94.6% | 93.5% | 104% | 91.3% | 99.8% | 103% | 95.1% | 98.1% | 36.9% | 58.6% | 93.2% | 101% | 87.6% | 98.6% | 81.2% | 110% | 91.9% | 151% | –
7 | C[C@@H]1C[C@H]2[C@@H]3CCC4=CC(=O)C=C[C@]4(C)[C@@]3(F)[C@@H](O)C[C@]2(C)[C@@]1(O)C(=O)CO [Dexamethasone] (100 nM) | 91.2% | 154% | 101% | 113% | 83.8% | 99% | 72.8% | 88.4% | 145% | 101% | 101% | 84.3% | 103% | 95.7% | 103% | 102% | 92.5% | 84.8% | 95.2% | 97.2% | – | 101% | 107% | 95.5% | 96.7% | 96.4% | 99.4% | 67.3% | 97% | 95.7% | 101% | 96.4% | 114% | – | 96% | 97.2% | 68%
8 | C[C@]12C=CC(=O)C=C1CC[C@@H]1[C@@H]2C(=O)C[C@@]2(C)[C@H]1CC[C@]2(O)C(=O)CO [Prednisone] (100 nM) | 117% | 107% | 105% | 103% | 113% | 101% | 103% | 104% | 107% | 68.4% | 101% | 109% | 99.3% | 102% | 99.8% | 101% | 101% | 101% | 133% | 64.5% | – | 119% | 104% | 107% | 99.5% | 103% | 101% | 92.4% | 85.8% | 78.5% | 96.7% | 103% | 111% | – | 105% | 126% | –
